Measurements as given in patent publication US20150132764A1, “BAG3 AS BIOCHEMICAL SERUM AND TISSUE MARKER” (BIOUNIVERSA S.R.L., priority 2012, published 2015).
Values belong to the molecule of their own block, whether it stands above or below them.

Legend:
[1] = target: FITC-conjugated recombinant BAG3 protein (human) (UniProt O95817); test: flow cytometry competition; 14 nM FITC-rBAG3 on J774 A.1 cells with 420 nM control F(ab')2
[2] = target: surface of J774 A1 macrophages (unidentified BAG3 binding partner) (murine); test: flow cytometry on J774 A.1 cells, FITC-rBAG3 minus FITC-BSA background
[3] = target: surface of J774 A1 macrophages (unidentified BAG3 binding partner) (murine); test: flow cytometry on J774 A.1 cells, FITC-rBAG3
J774 A.1 cells [4] = test: FACS analysis of FITC-rBAG3 binding to J774 macrophages; design: species or system murine; details: for % of positive cells (±S.D.): flow cytometry
Protocol: FIG. 3B: BAG3 binds macrophages. J774 A1 macrophages (1×10^6 cells/ml) were incubated with different concentration of Fitc-BAG3 protein (7, 14 and 70 nm). FITC-BSA (70 nM) was used as a negative control (grey). Cells fluorescence was analyzed by flow cytometry.
rBAG3 binding—J774 A.1 cells were blocked with 2% FBS+0.1% NaN3 in PBS for 15 min on ice and incubated (2.5×105/100 μl) with different concentration of FITC-rBAG3 protein (7, 14 and 70 nm) or FITC-BSA (70 nM) in PBS containing 2% FBS+0.1% NaN3 for 30 min at 4° C. in the dark. After washing with PBS, the cells were resuspended in PBS+2% FBS+0.1% NaN3 and analyzed with a FACScan (BD Biosciences) flow cytometer.

HCMa cells = test: Confocal direct fluorescence of rBAG3-FITC binding to cardiomyocytes; design: species or system Human; details: FITC-conjugated BAG3, 1 h, FIG. 3A
From the text: FIG. 3A: Confocal microscopy analysis of direct fluorescence performed for detection of rBAG3-FITC binding to HCMa cells (a, b, c) and J774 A1 cells (d, e, f, g, h, i). BAG3 recombinant protein and purified BSA (albumin from bovine serum purchased from SIGMA) were conjugated to FITC using the FluoroTag FITC Conjugation Kit purchased from SIGMA following the manufacturer instructions. Equal amount of rBAG3-FITC (b, e) and BSA-FITC (h) proteins, calculated following the manufacturer instructions, were added in HCM and J774 A1 culture media with 0.1% NaN3 for 1 h. β-integrin was analyzed as control (a, d, g). Cells were analyzed by a Zeiss LSM confocal microscope. Merged images are shown in c, f and i.
Cells were cultured on coverslips in six-well plates to 60-70% confluence and equal amount of rBAG3-FITC and BSA-FITC proteins were added in HCMa and J774 A1 culture media with 0.1% NaN3 for 1 h. […] Samples were analyzed using a confocal laser scanning microscope (Zeiss LSM confocal microscope, Germany). […] For production of figures, brightness and contrast of images were adjusted by taking care to leave a light cellular fluorescence background for visual appreciation of the lowest fluorescence intensity features and to help comparison among the different experimental groups. […]

J774 A.1 cells [5] = test: FACS competition assay of FITC-rBAG3 binding to J774 macrophages; design: species or system murine; details: 625 nM peptide, then 14 nM FITC-rBAG3, J774 cells
Protocol: In particular J774 cells were incubated with 14 nM FITC-BAG3 protein and with 625 nM of BAG3 peptides (peptide 1, peptide 2, peptide 3, peptide 4 or scrambled peptide) or with 420 nM of F(ab′)2 fragments from anti-BAG3 monoclonal and polyclonal antibodies (mouse monoclonal AC1, AC2 and rabbit polyclonal TOS2). F(ab′)2 fragments from mouse IgG or F(ab′)2 fragments from rabbit IgG were used as a negative control.
Competition—J774 A.1 cells (2.5×105/100 μl) were incubated with 625 nM of BAG3 peptides (peptide 1, peptide 2, peptide 3, peptide 4 or scrambled peptide) or with 420 nM of F(ab′)2 fragments from anti-BAG3 monoclonal and polyclonal antibodies (mouse monoclonal AC1, AC2 and rabbit polyclonal TOS2) or F(ab′)2 fragments from mouse IgG or F(ab′)2 fragments from rabbit IgG in PBS containing 2% FBS+0.1% NaN3 for 30 min on ice. After incubation the cells were washing with PBS and then were incubated with of FITC-rBAG3 protein (14 nM), in PBS containing 2% FBS+0.1% NaN3 for 30 min at 4° C. in the dark. After washing with PBS, the cells were resuspended in PBS+2% FBS+0.1% NaN3 and analyzed by flow cytometer (BD Biosciences).

[6] = target: surface of J774 A1 macrophages (unidentified BAG3 binding partner) (murine); test: flow cytometry on J774 A.1 cells, FITC-BSA negative control
cyclooxygenase (Cox)-2 = test: Cox-2 expression in J774 A1 macrophages incubated with BAG3 (Western blotting); type: cell-based, murine; details: J774 A1 cells, 20 hours, FIG. 3C panel a
Protocol: (§1) FIG. 3C: panel a—Analysis of Cox-2 and iNOS levels in J774 A1 macrophages incubated with BAG3. J774 A1 cells at 80% confluency were incubated with control medium, BSA, LPS or rBAG3, for 20 hours. Polymixin was added where indicated to verify that the effects of E. coli-derived rBAG3 were independent from the presence of contaminating endotoxin. Cox-2 and iNOS expression were analyzed in cell lysates by Western blotting.
(§2) Cells were harvested and lysed in a buffer containing 20 mM HEPES (pH 7.5), 150 mM NaCl, 0.1% Triton (TNN buffer) supplemented with a protease inhibitors cocktail (1 mM phenylmethylsulfonyl fluoride, […]) by 3 cycles of freezing and thawing. Soluble proteins were collected after a centrifugation at 10,000 g for 15 min and their amount was determined by Bradford assay (Bio-Rad, Hercules, Calif.). 25 μg of total protein and serum samples (1:2 in PBS-T 0.05%) were run on 8% or 10% SDS-PAGE gels and electrophoretically transferred to nitrocellulose membrane. […] Immunoreactivity was detected by sequential incubation with horseradish peroxidase-conjugated secondary antibodies purchased from Pierce (Rockford, Ill.) and ECL detection reagents purchased from Amersham Life Sciences Inc. (Arlington Heights, Ill., USA).

[7] = system: inducible nitric oxide synthase (iNOS); test: iNOS expression in J774 A1 macrophages incubated with BAG3 (Western blotting); type: cell-based, murine; details: J774 A1 cells, 20 hours, FIG. 3C panel a
Protocol: as §1, §2

J774 A.1 cells [8] = test: Nitrite release from J774 A1 macrophages (Griess reaction); type: cell-based, murine; details: 24 hours, FIG. 3C panel b
Protocol: FIG. 3C panel b—Analysis of nitrite release from J774 A1 macrophages incubated with BAG3. J774 A1 cells at 80% confluency were incubated with control medium, BSA, LPS or rBAG3 for 24 hours. 100 μl of supernatants from each sample were incubated with 100 μl of Griess reagent; the optical density at 550 nm (OD550) was measured with a Beckman DU62 spectrophotometer. Nitrite concentration was evaluated by comparing the OD550 of the sample with that of a standard curve of sodium nitrite.
Nitrite content (NO2^−), a stable metabolite of NO released by cells in the culture supernatant, was measured in J774 A.1 cells (5×104/in 96-well microplates) treated with LPS (10 ng/ml) or with rBAG3 (7, 14 and 28 nM) or BSA (28 nM) for 24 hours in absence or presence of polymyxin B sulfate (Sigma-Aldrich, St. Louis, Mo., USA) 5 μg/ml. NO2^− amounts were measured by Griess reaction. Briefly, 100 μL of cell culture medium were mixed with 100 μL of Griess reagent—equal volumes of 1% (w:v) sulphanilamide in 5% (v:v) phosphoric acid and 0.1% (w:v) naphtylethylenediamine-HCl—and incubated at room temperature for 10 min, and then the absorbance was measured at 550 nm in a microplate reader Titertek (Dasit, Cornaredo, Milan, Italy). The amount of NO2− (as μM) in the samples was calculated from a sodium nitrite standard curve.

J774 A.1 cells [9] = test: IL-6 release from J774 A1 macrophages (ELISA); type: cell-based, murine; details: FIG. 3C panel c
Protocol: FIG. 3C panel c—Analysis of IL-6 release from J774 A1 macrophages incubated with BAG3. J774 A1 cells at 80% confluency macrophages were incubated with control medium, BSA, LPS or recombinant BAG3 for 5 hours. BAG3 peptides (peptide 1, peptide 2, peptide 3, peptide 4 or scrambled peptide) 625 nM were added where indicated to verify their ability to block BAG3 activity. IL-6 production was measured in cell culture medium using an ELISA test. IL-6 concentration was evaluated by comparing the OD of the sample with that of a standard curve of recombinant IL-6.
IL6 was measured in supernatant of J774 A.1 cells (5×10^4/in 96-well microplates) treated with LPS (10 ng/ml) or with rBAG3 (14 nM) or BSA (14 nM) for 10 or 20 hours in absence or presence of polymyxin B sulfate (5 μg/ml). After treatment 50 μL of cell culture medium were collected and analyzed in triplicate with a mouse IL6 Kit (eBioscience).

[10] = target: surface of J774 A1 macrophages (unidentified BAG3 binding partner) (murine); test: flow cytometry competition; 14 nM FITC-rBAG3 on J774 A.1 cells with 625 nM peptide

Sequence of UniProt O95817 (O95817 whole entry): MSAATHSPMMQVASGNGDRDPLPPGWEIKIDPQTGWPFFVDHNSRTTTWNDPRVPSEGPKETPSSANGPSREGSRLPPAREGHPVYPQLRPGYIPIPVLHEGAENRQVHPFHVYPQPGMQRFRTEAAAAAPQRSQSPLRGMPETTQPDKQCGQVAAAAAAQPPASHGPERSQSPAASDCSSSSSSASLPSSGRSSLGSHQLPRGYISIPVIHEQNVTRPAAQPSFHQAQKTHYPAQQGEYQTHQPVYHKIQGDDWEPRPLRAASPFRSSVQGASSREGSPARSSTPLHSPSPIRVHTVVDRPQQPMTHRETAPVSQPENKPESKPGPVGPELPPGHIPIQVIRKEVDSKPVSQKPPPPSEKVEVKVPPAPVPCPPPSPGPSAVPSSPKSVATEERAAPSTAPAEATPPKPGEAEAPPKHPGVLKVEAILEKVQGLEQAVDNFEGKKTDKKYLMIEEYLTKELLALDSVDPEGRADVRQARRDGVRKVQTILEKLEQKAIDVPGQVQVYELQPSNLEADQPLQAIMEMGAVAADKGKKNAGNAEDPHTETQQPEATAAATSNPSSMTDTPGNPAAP

Molecule: FITC-rBAG3: BAG3 recombinant protein conjugated to FITC
binding to macrophages of the cell line J774 (in words) (J774 A.1 cells [4]; FITC-conjugated BAG3, FIG. 3B): bound to macrophages | % of positive cells (±S.D.) (J774 A.1 cells [4]; FITC-rBAG3 14 nM, J774 cells): 15.7 (±0.45) % | % of positive cells (±S.D.), (FITC-rBAG3)-(FITC-BSA) (J774 A.1 cells [4]; FITC-rBAG3 signal minus FITC-BSA signal, J774 cells): 11.06 (±0.45) % | binding to the cardiomyocyte surface (in words) (HCMa cells): did not apparently bind

Molecule: NPSSMTDTPGNPAAP (listed as Homo sapiens) [Pep4, 14]
Competition assays: % inhibition (J774 A.1 cells [5]): 93.8% | Competition assays: % of positive cells (±S.D.) (J774 A.1 cells [5]): 0.68 (±0.20) %

Molecule: FITC-BSA: purified albumin from bovine serum conjugated to FITC, negative control [reference compound]
% of positive cells (±S.D.) (J774 A.1 cells [4]; FITC-BSA negative control, J774 cells): 4.04 (±0.06) %

Molecule: DKGKKNAGNAEDPHT (listed as Homo sapiens) [Pep3, 13]
Competition assays: % inhibition (J774 A.1 cells [5]): 47.2% | Competition assays: % of positive cells (±S.D.) (J774 A.1 cells [5]): 5.86 (±0.43) %

Molecule: recombinant BAG3: E. coli-derived recombinant BAG3 protein
Cox-2 levels in macrophages (cyclooxygenase (Cox)-2): enhanced | iNOS levels in macrophages [7]: enhanced | release of nitrite (J774 A.1 cells [8]): induced the release | release of interleukin (IL)-6 (J774 A.1 cells [9]): induced the release

Molecule: DRDPLPPGWEIKIDPQ (listed as Homo sapiens) [Pepl, 11]
Competition assays: % inhibition (J774 A.1 cells [5]): 98.4% | Competition assays: % of positive cells (±S.D.) (J774 A.1 cells [5]): 0.18 (±0.05) %

Molecule: SSPKSVATEERAAPS (listed as Homo sapiens) [Pep2, 12]
Competition assays: % inhibition (J774 A.1 cells [5]): 89.1% | Competition assays: % of positive cells (±S.D.) (J774 A.1 cells [5]): 1.21 (±0.63) %

Second part, the molecule after the results:

% inhibition [1]: 0% | % of positive cells [1]: 14.7%
Molecule: F(ab')2 fragments from rabbit IgG

% of positive cells [2]: 11.1% | % of positive cells [3]: 15.7%
Molecule: FITC-conjugated recombinant BAG3 protein (from UniProt O95817 1-575) (ligand)

% of positive cells [6]: 4.04%
Molecule: FITC-conjugated bovine serum albumin (from UniProt P02769 25-607)

% inhibition [1]: 0% | % of positive cells [1]: 12.3%
Molecule: F(ab')2 fragments from mouse IgG

% inhibition [10]: 89.1% | % of positive cells [10]: 1.21%
B1: BAG3 peptide 2 (peptide)
peptide: SSPKSVATEERAAPS

% inhibition [10]: 93.8% | % of positive cells [10]: 0.68%
B2: BAG3 peptide 4 (peptide)
peptide: NPSSMTDTPGNPAAP

% inhibition [10]: 47.2% | % of positive cells [10]: 5.86%
B3: BAG3 peptide 3 (peptide)
peptide: DKGKKNAGNAEDPHT

% inhibition [10]: 98.4% | % of positive cells [10]: 0.18%
B4: BAG3 peptide 1 (peptide)
peptide: DRDPLPPGWEIKIDPQ
